Structures can show the parent of a compound that is named as a salt.
Columns and labels:
[1] = system: HGPS cells (γH2AX, autophosphorylated ATM); assay: DNA damage markers in HGPS cells (western blotting, IF); format: cell-based, human; conditions: Remodelin 1 μM
Experimental: The following KAT and KDAC inhibitors were used in the nuclear shape rescue screen, incubating cells with the molecules for 16 hours: trichostatin A (1 μM), sodium butyrate (5 mM), tubacin (10 μM), SAHA (5 μM), curcumin (10 μM), garcinol (50 μM), anacardic acid (1 μM), MB-3 (5 μM), 4-(4-chlorophenyl)-2-(2-cyclopentylidenehydrazinyl)thiazole (Compound 2) (50 μM), 4-(4-chlorophenyl)-2-(2-cyclopentylidene-1-(prop-2-yn-1-yl)hydrazinyl)thiazole (Compound 3) (50 μM) and cyclopentylidene-[4-(4-cyanophenyl)thiazol-2-yl)hydrazine (Compound 1) (Remodelin) (10 to 50 μM). For HGPS cellular fitness assays, Remodelin was incubated at 1 μM for 1 to 10 days, renewing the medium every 3 days. For long-term senescence assay, cells were kept and passaged in medium containing 1 μM Remodelin or DMSO only for 12 population doublings. Senescence was assessed after 8 days of Remodelin treatment when cells were at Population Doubling 12, and then after several weeks of Remodelin treatment, when cells reached Population Doubling 24 using the Senescence β-Galactosidase Staining Kit #9860 from Cell Signaling. […]
Total cell extracts were prepared by scraping cells in SDS lysis buffer (4% SDS, 20% glycerol, and 120 mM Tris-HCl, pH 6.8), boiling for 5 minutes at 95° C., followed by 10 strokes through a 25-gauge needle. […] Detection and quantification was performed with an imager (Odyssey; LI-COR Biosciences). […]

[2] = system: cancer cell lines displaying reduced Lamin A/C expression; assay: Nuclear morphology of cancer cell lines with reduced Lamin A/C expression (DAPI); format: cell-based, human
Source text: FIG. 2: Small molecule Compound 2 rescues nuclear shape defects in various Lamin A/C depleted cells. A) and B) Nuclear shape visualization by DAPI staining of HeLa (A) or RPE-1 (B) cells depleted for Lamin A/C (siLMNA) and treated with various KATi. Scale bars: 50 μm. C) and D) Cell Profiler quantification of nuclear circularity of HeLa (C) or RPE-1 (D) cells from DAPI staining as shown in A) and B) (means of three independent experiments with n>252±s.d). E) Cell cycle profile analysed by flow cytometry. PI: propidium iodide. F) Analysis of Lamin A/C expression levels in indicated cancer cell lines. Bottom panel: Image J quantification of Lamin A/C expression in cancer cells relative to normal RPE-1 cells. G) Representative pictures of DAPI staining showing nuclear shape improvement in low Lamin A/C expressing cancer cells after treatment with Compound 2. Scale bars: 20 μm.
U2OS and SaOS-2 osteosarcoma cells, HeLa cervical cancer cells, A431 melanoma cells, NCI-SNU5 gastric cancer cells, MRC-5 lung fibroblast cells and Werner syndrome patient-derived SV40 fibroblast cells were grown in Dulbecco's modified Eagle medium (DMEM, Sigma-Aldrich) supplemented with 10% fetal bovine serum (BioSera), 2 mM L-glutamine, 100 U per ml penicillin, 100 μg ml^−1 streptomycin. […] Cells were analysed 48 to 72 hours after transfection.

Compound	steady-state DNA damage markers (γH2AX, autophosphorylated ATM) [1]	nuclear morphology of cancer cell lines [2]
N#Cc1ccc(-c2csc(NN=C3CCCC3)n2)cc1 [Compound 1, 4-(4-Cyanophenyl)-2-(2-cyclopentylidenehydrazinyl)thiazole]	decreased steady-state levels of γH2AX and autophosphorylated ATM	–
Clc1ccc(-c2csc(NN=C3CCCC3)n2)cc1 [Compound 2, 4-(4-Chlorophenyl)-2-(2-cyclopentylidenehydrazinyl)thiazole Hydrochloride Salt]	–	improved the nuclear morphology of several cancer cell lines
